We go through two compounds from US20110034528A1, “Elansolids, Novel Natural Metabolites of Flexibacter and Antibiotically Active Derivatives Thereof” (priority 2008, published 2011).

Data set [1] has as its system Chromobacterium violaceum. Briefly: Minimum inhibitory concentration (MIC) determination. The class given is cell-based. The method, then:
(§1) The determination of minimum inhibitory concentrations was performed as described in J. Antimicrob. Chemother. 2001;48 Suppl 1:5-16.

Data set [2] deals with Corynebact. fascians. The description is as above. It is filed as cell-based. Here is the method:
as §1

The subject of data set [3] is E. faecalis 25912. The description is as above. The class given is cell-based. Particulars: Enterococcus faecalis. Here is the method:
as §1

Data set [4] deals with Micrococcus luteus. The data set is described as above. It is filed as cell-based. The method, then:
as §1

The subject of data set [5] is Mycobacterium lacticola. Described as above. The class given is cell-based. The method, then:
as §1

Data set [6] deals with S. aureus 29213. The data set is described as above. It is filed as cell-based. Particulars: Staphylococcus aureus. The method, then: as §1
The test system of data set [7] is S. aureus MRS3 (clinical isolate of a multiresistant S. aureus). The data set is described as above. It is filed as cell-based. As to conditions: Staphylococcus aureus. The method, then:
as §1

Data set [8] can be described thus: Transformation of Elansolid A2 in solution. The class given is physicochemical. As to conditions: in solution (especially in DMSO).
For data set [9], the system named is gram-positive bacteria. Briefly: Elansolid C1: antibiotic spectrum against gram positive bacteria. It is filed as cell-based.

In brackets after ≈: the same amount, converted by molar mass.

On to `CC1=CC2C(C3C1\C=C/C=C/C=C\C(O)C(C)C(O)C/C=C(C)/C=C/C(=O)OC3c1ccc(O)cc1)C(C)(C)CC2(C)O` (stereo not drawn) [Elansolid A2], for which the MIC is 3.3 µg/mL (≈ 5.6 µM) in data set [1]; 1.6 µg/mL (≈ 2.72 µM) in [2]; 64 µg/mL (≈ 109 µM) in data set [3]; 0.2 µg/mL (≈ 0.34 µM) in data set [4]; 3.3 µg/mL (≈ 5.6 µM) in [5]; 4 µg/mL (≈ 6.79 µM) in data set [6]. In data set [7], this compound had an MIC of 0.8 µg/mL (≈ 1.36 µM). For the same compound, in data set [8], the transformation in solution entry was “transformed into Elansolid A1”.

For `CC1=CC2C(C(C(Nc3ccccc3C(=O)O)c3ccc(O)cc3)C1\C=C/C=C/C=C\C(O)C(C)C(O)C/C=C(C)/C=C/C(=O)O)C(C)(C)CC2(C)O` (stereo not drawn) [Elansolid C1], the MIC turned out to be 0.4 µg/mL (≈ 0.551 µM) in [4] and 1.7 µg/mL (≈ 2.34 µM) in [7]. The Inhibition zone in [9] (Arthrobacter simplex) is reported as 25 mm; in data set [9] (Bacillus polymyxa) it was 20 mm; in [9] (Bacillus thuringiensis) it was 17 mm; in data set [9] (Brevibact. ammoniagenes), 17 mm; in data set [9] (Corynebact. fascians), 26 mm; in [9] (Micrococcus luteus), 27 mm. Besides, the Inhibition zone in [9] (Mycobact. chitae) stood at 15 mm; in data set [9] (Nocardia flava), 14 mm; in data set [9] (Staph. aureus), 11 mm; in [9] (Streptococcus faecalis) it was 14 mm. In addition, the “activity against selected gram-positive bacteria” value in [9] (selected gram-positive bacteria) was “bactericidal activity”.

For orientation: MIC means the lowest concentration found to suppress growth. A lower MIC goes with inhibition by little substance.
